# Measured values: patent US20170218375A1, “MORPHOLINOS, MORPHOLINO UPREGULATING, AND ASSOCIATED METHODS” (University of Utah Research Foundation, priority 2011, published 2017)
# {Dendrimer} = dendrimer conjugate (vivo-morpholino)
# Assays:
# [1] = system: mbVEGFR2 mRNA; test: RT-PCR of mbVEGFR2 mRNA in mouse MS-1 cell line; format: cell-based
# Excerpt: Because VEGFR2_MOe13 decreases mbVEGFR2 and increases sVEGFR2, it is expected that VEGFR2_MOe13 can inhibit angiogenesis and lymphangiogenesis in vivo. To study the effect of VEGFR2_MOe13 in animal models, moVEGFR2_MOe13 was created that targets the exon13-intron13 junction of the mouse VEGFR2 gene. By RT-PCR analysis, it was found moVEGFR2_MOe13 increased sVEGFR2 mRNA and decreased mbVEGFR2 mRNA in the mouse MS-1 cell line (FIG. 7A). […] FIGS. 7(f, g) show the mean area of corneal neovascularization and lymphangiogenesis respectively (n=13-16). Risk factors (p-value) were calculated by two-tail student's t-test (*: p<0.05, **p<0.01, ***p<0.001). Error bar is ±s.e.m.
# Each morpholino oligomer was purchased from Gene Tools (Philomath, Oreg.). The sequences of each morpholino oligomer and primers for PCR are listed in supplemental Table. […] The cells were washed three times and fluorescence was detected by a FACScan Analyzer (BD Biosciences, San Jose, Calif.). […]
# cDNAs were synthesized from 400 ng total RNA using Omniscript RT kit (Qiagen, Valencia, Calif.) and Oligo-dT primer(dT20) according to the manufacturer's instructions. Real-time PCR was performed using QuantiTect SYBR Green PCR Kit (Qiagen, Valencia, Calif.) and 1 μl of cDNA. […]
# [2] = system: sVEGFR2/mbVEGFR2 mRNA; test: Real-time PCR of mouse retinal total RNA after intravitreous injection; format: in vivo; conditions: 2 μl of 100 ng/μl intravitreously on day 0 and day 3, retina on day 4, vivo-morpholino
# Excerpt: To administer morpholinos in vivo, morpholino conjugated with a dendrimer at the 3′ position (vivo-morpholino) was used for animal experiments. It should be understood that this technique is merely exemplary, and any other method of administration is considered to be within the present scope. […] Next, the protein level of mbVEGFR2 and sVEGFR2 in the retina and the ocular solution was examined by western blot. Consistent with real-time PCR results, moVEGFR2_MOe13 decreased mbVEGFR2 protein in the retina (FIG. 7C) and increased sVEGFR2 protein in the ocular solution (FIG. 7D).
# To examine whether moVEGFR2_MOe13 could work in the mouse eye, on day 0 and day 3 2 μl of 100 ng/μl moVEGFR2_MOe13 or STD_MO or DPBS were injected intravitreously. On day 4, retinal total RNA was extracted with RNeasy mini kit with DNaseI treatment. sVEGFR2 and mbVEGFR2 mRNA expression were determined by the method described above. For western blot of mbVEGFR2, on day 4, retina was dissolved in RIPA buffer. For western blot of sVEGFR2, on 4 day, intraocular solution was obtained from 6 eyes by pipette. After centrifuge, supernatant was used for further experiment. For western blot, biotin-conjugated anti-VEGFR2 (BAF644, R&D Systems, Minneapolis, Minn.) was used at 1 μg/μl.
# [3] = system: corneal transplant rejection; test: Mouse corneal transplantation model; format: in vivo
# Protocol: It was also examined whether moVEGFR2_MOe13 can suppress murine corneal transplant rejection. After cornea transplantation, moVEGFR2_MOe13, STD_MO or DPBS were injected subconjuctivally. […] The arrow indicates censored data. […] Scale bar is 1 mm. FIGS. 12(c, d) Show the mean area of corneal neovascularization and lymphangiogenesis at 8 weeks respectively (n=11-17). Risk factors (p-value) were calculated by two-tail student's t-test (*: p<0.05, **p<0.01). Error bar is ±s.e.m.
# Mouse corneal transplantation has been described previously. The donor cornea was marked with 2 mm trephine, the anterior chamber was penetrated using a knife (ClearCut™ Alcon, Inc) and the cornea was cut with Vannas scissors and then placed in Balanced Salt Solution (BSS® Alcon Laboratories, Inc, Fort Worth). The recipient mouse was anesthetized by intramuscular injection with ketamine (100 mg/kg body weight) and xylazine (20 mg/kg body weight). To dilate pupil and anesthetize the cornea, 1% tropicamide ophthalmic solution and 0.5% proparacaine ophthalmic solution were used. The recipient's right cornea was marked with 1.5 mm trephine and removed by the same method as the donor cornea. Viscoelastic material (Healon, 1% sodium hyaluronate, Abbott Medical Optics, IL) was used during recipient cornea dissection. […]
substance,measurement,setting,value
"5′-cacccagggatgcctccatacCTAG-3′ (antisense CACCCAGGGATGCCTCCATACCTAG; all phosphorodiamidate morpholino (PMO), 3' {Dendrimer}) [moVEGFR2_MOe13, morpholino that targets the exon13-intron13 junction of the mouse VEGFR2 gene; in vivo conjugated with a dendrimer (vivo-morpholino)]",mbVEGFR2 mRNA by RT-PCR,[1],decreased
same,sVEGFR2/mbVEGFR2 mRNA ratio in retina,[2],significantly increased
same,corneal neovascularization and lymphangiogenesis at 8 weeks,"[3]; mean area, CD31 and LYVE-1 stained cornea at the endpoint (8 weeks), FIGS. 12C, D",decreased
same,graft survival,"[3]; mouse cornea transplantation, 15 ul of 40 ng/μl subconjunctivally day of transplantation and weeks 1-4, compared with DPBS and STD_MO (log rank p=0.0186 and 0.0610)",increased
